According to patent US11414428B2, “Inhibitors of tryptophan dioxygenases (IDO1 and TDO) and their use in therapy” (Auckland UniServices Limited, priority 2015, dated 2022):

Key:
[1] = Cell viability (MTT colourimetric assay) in the IDO1 cell-based assay; conditions: mouse, same experiment as cellular IDO1 assay, read-out: Cell cytotoxicity IC50
Protocol: The viability of the cells in each well in the same experiment was determined using the 3-(4,5-dimethylthiazolyl-2-yl)-2,5-diphenyltetrazolium bromide ([…]) colourimetric assay. After the removal of the supernatant for determination of IDO1 inhibition, the cells were incubated with MU (500 μg/mL) until crystal formation was observed. Plates were centrifuged for 15 min at 2500 g, and then all the supernatant in then wells was discarded. DMSO (100 μL/well) was added to dissolve the crystals and then the absorbance in each well was measured at 570 nm. Cell viability in each well was expressed as a percentage of untreated controls. Triplicate cultures were used for all experiments unless stated otherwise.

[2] = target: Recombinant human IDO1 (rhIDO1) (Homo sapiens (Human), UniProt P14902); experiment: Enzymatic assay for IDO1 activity; type: biochemical; conditions: rhIDO1 9 nM, 80 μM TRP, 37° C. 30 min
Protocol: Recombinant human IDO1 (rhIDO1) was expressed and purified from cultures of EC538 strain of E. coli transformed with pREP4 and pQE9-IDO plasmid. Reaction mixes were set up in 384-well microplates containing 50 mM phosphate buffer, 10 mM ascorbic, 10 μM methylene blue, 100 μg/mL catalase, 80 μM TRP, 0.01% Tween 20 (v/v) mixed with rhIDO1 (15 μL) at a final concentration of 9 nM in a total volume of 30 μL assay medium. The plates were incubated at 37° C. for 30 min, and the enzymatic reaction was terminated by adding piperidine (200 mM) and heated at 65° C. for 20 min. Fluorescence intensity was read at λex 400 nm and λem 500 nm. Test compounds were dissolved in 100% DMSO and pre-diluted in assay medium prior to adding rhIDO1. IDO1 inhibition (%) was calculated as
[formula] All experiments were carried out in triplicates, and statistical Analyses were conducted in Prism v5 (Graphpad Software, Inc., La Jolla, Calif., USA). Cell-Based Assay for IDO1 Inhibition

[3] = Cell viability (MTT colourimetric assay) in the TDO cell-based assay; conditions: mouse, same experiment as cellular TDO assay, read-out: Cell cytotoxicity IC50
Protocol: The viability of the cells in each well in the same experiment was determined using the 3-(4,5-dimethylthiazolyl-2-yl)-2,5-diphenyltetrazolium bromide ([…]) colourimetric assay.

[4] = target: full length human TDO (GL261 cells) (Homo sapiens (Human), UniProt P48775); experiment: Cell-based assay for TDO inhibition; conditions: GL261 cells over-expressing human TDO, 24 h; read-out: Cellular IC50
Protocol: Culture supernatant from each well was then transferred into a fresh, flat-bottomed 96-well plate, and kynurenine content was determined as described above for the IDO1 assay, and the concentration that inhibited 50% cellular enzyme activity was calculated.

Recombinant human IDO1 (rhIDO1), sequence (P14902 whole entry): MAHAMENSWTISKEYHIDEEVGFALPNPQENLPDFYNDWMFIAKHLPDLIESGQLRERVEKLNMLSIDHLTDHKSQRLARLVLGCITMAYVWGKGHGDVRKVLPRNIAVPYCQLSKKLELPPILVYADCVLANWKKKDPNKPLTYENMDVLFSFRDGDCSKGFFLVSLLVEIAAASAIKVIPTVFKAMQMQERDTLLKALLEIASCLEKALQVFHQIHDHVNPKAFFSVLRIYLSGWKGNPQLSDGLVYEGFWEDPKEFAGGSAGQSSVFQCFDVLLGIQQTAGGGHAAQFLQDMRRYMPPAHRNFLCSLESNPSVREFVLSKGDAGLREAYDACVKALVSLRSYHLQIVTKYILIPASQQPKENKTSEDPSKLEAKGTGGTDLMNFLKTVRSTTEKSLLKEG
full length human TDO (GL261 cells), sequence (P48775 whole entry): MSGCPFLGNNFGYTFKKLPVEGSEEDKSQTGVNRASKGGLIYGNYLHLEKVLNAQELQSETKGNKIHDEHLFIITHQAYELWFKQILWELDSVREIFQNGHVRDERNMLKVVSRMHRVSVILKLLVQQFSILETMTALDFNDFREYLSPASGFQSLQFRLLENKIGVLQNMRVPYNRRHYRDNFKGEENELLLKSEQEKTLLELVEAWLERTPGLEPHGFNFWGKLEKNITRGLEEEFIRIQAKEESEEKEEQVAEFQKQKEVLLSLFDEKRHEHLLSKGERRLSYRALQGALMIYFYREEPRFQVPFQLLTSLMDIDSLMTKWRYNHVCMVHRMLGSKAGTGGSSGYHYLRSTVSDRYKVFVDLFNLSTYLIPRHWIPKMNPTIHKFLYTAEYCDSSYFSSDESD

Row | Structure (SMILES) | IC50 [2] [µM] | IC50 [1] [µM] | IC50 [3] [µM] | IC50 [4] [µM]
1 | Cc1nc2onc(NC(=O)Nc3ccccc3OC(F)(F)F)c2c(C)c1Cl [Compound 9, 1-(5-Chloro-4,6-dimethylisoxazolo[5,4-b]pyridin-3-yl)-3-(2-(trifluoromethoxy)phenyl)urea] | > 100 | > 100 |  | 
2 | Cc1nc2onc(NC(=O)Nc3cccc(OC(F)(F)F)c3)c2c(C)c1Cl [Compound 10, 1-(5-Chloro-4,6-dimethylisoxazolo[5,4-b]pyridin-3-yl)-3-(3-(trifluoromethoxy)phenyl)urea] | > 100 | > 100 |  | 
3 | Cc1nc2onc(N)c2c(C)c1Cl [Compound 1, 5-Chloro-4,6-dimethylisoxazolo[5,4-b]pyridin-3-amine] |  | > 100 | > 100 | 
4 | Cc1nc2onc(NC(=O)Nc3cccc(Cl)c3)c2c(C)c1Cl [Compound 7, 1-(5-Chloro-4,6-dimethylisoxazolo[5,4-b]pyridin-3-yl)-3-(3-chlorophenyl)urea] | > 100 | > 100 |  | 
5 | Cc1nc2onc(NC(=O)Oc3ccccc3)c2c(C)c1Cl [Compound 4, Phenyl (5-chloro-4,6-dimethylisoxazolo[5,4-b]pyridin-3-yl)carbamate] | 1 to 10 | > 100 | > 100 | 10 to 100
6 | Cc1nc2onc(NC(=O)Nc3ccccc3Cl)c2c(C)c1Cl [Compound 6, 1-(5-Chloro-4,6-dimethylisoxazolo[5,4-b]pyridin-3-yl)-3-(2-chlorophenyl)urea] | > 100 | > 100 |  | 
7 | COc1ccccc1NC(=O)Nc1noc2nc(C)c(Cl)c(C)c12 [Compound 11, 1-(5-Chloro-4,6-dimethylisoxazolo[5,4-b]pyridin-3-yl)-3-(2-methoxyphenyl)urea] | 10 to 100 | > 100 |  | 
8 | Cc1nc2onc(NC(=O)Nc3ccc(OC(F)(F)F)cc3)c2c(C)c1Cl [Compound 2, 1-(5-Chloro-4,6-dimethylisoxazolo[5,4-b]pyridin-3-yl)-3-(4-(trifluoromethoxy)phenyl)urea] | > 100 | > 100 |  | 
9 | Cc1nc2onc(NC(=O)Nc3ccc(Cl)cc3)c2c(C)c1Cl [Compound 8, 1-(5-Chloro-4,6-dimethylisoxazolo[5,4-b]pyridin-3-yl)-3-(4-chlorophenyl)urea] | > 100 | > 100 |  | 
10 | Cc1nc2onc(NC(=O)Nc3ccc(C#N)cc3)c2c(C)c1Cl [Compound 3, 1-(5-chloro-4,6-dimethylisoxazolo[5,4-b]pyridin-3-yl)-3-(4-cyanophenyl)urea] | 10 to 100 | > 100 |  | 
11 | COc1cccc(NC(=O)Nc2noc3nc(C)c(Cl)c(C)c23)c1 [Compound 12, 1-(5-Chloro-4,6-dimethylisoxazolo[5,4-b]pyridin-3-yl)-3-(3-methoxyphenyl)urea] | > 100 | > 100 |  | 
12 | COc1ccc(NC(=O)Nc2noc3nc(C)c(Cl)c(C)c23)cc1 [Compound 13, 1-(5-Chloro-4,6-dimethylisoxazolo[5,4-b]pyridin-3-yl)-3-(4-methoxyphenyl)urea] | > 100 | > 100 |  | 

Further lines, with some results ahead:

Row | IC50 [2] [µM] | Structure (SMILES) | IC50 [1] [µM] | IC50 [3] [µM] | IC50 [4] [µM]
13 | > 100 | Cc1nc2onc(NC(=O)Nc3ccc(C(F)(F)F)cc3)c2c(C)c1Cl [Compound 16, 1-(5-Chloro-4,6-dimethylisoxazolo[5,4-b]pyridin-3-yl)-3-(4-(trifluoromethyl)phenyl)urea] | > 100 |  | 
14 | > 100 | CC(=O)Nc1noc2nc(C)c(Cl)c(C)c12 [Compound 20, N-(5-Chloro-4,6-dimethylisoxazolo[5,4-b]pyridin-3-yl)acetamide] | > 100 |  | 
15 | > 100 | Cc1nc2onc(NC(=O)Cc3ccc(OC(F)(F)F)cc3)c2c(C)c1Cl [Compound 19, N-(5-Chloro-4,6-dimethylisoxazolo[5,4-b]pyridin-3-yl)-2-(4-(trifluoromethoxy)phenyl)acetamide] | > 100 |  | 
16 | > 100 | Cc1nc2onc(NC(=O)Nc3ccccc3C(F)(F)F)c2c(C)c1Cl [Compound 14, 1-(5-Chloro-4,6-dimethylisoxazolo[5,4-b]pyridin-3-yl)-3-(2-(trifluoromethyl)phenyl)urea] | > 100 |  | 
17 | > 100 | Cc1nc2onc(NC(=O)Cc3ccccc3)c2c(C)c1Cl [Compound 18, N-(5-Chloro-4,6-dimethylisoxazolo[5,4-b]pyridin-3-yl)-2-phenylacetamide] |  |  | 
18 | > 100 | Cc1nc2onc(NC(=O)Nc3cccc(C(F)(F)F)c3)c2c(C)c1Cl [Compound 15, 1-(5-Chloro-4,6-dimethylisoxazolo[5,4-b]pyridin-3-yl)-3-(3-(trifluoromethyl)phenyl)urea] | > 100 | > 100 | 10 to 100
19 | 10 to 100 | Cc1nc2onc(NC(=O)Nc3ccccc3)c2c(C)c1Cl [Compound 17, 1-(5-Chloro-4,6-dimethylisoxazolo[5,4-b]pyridin-3-yl)-3-phenylurea] | > 100 |  | 
